Measurements published in patent publication US11964052B2, “Lipid compounds and lipid nanoparticle compositions” (SUZHOU ABOGEN BIOSCIENCES CO., LTD., priority 2021, dated 2024).

Legend:
Assay type in all cases: physicochemical
[1] = Lipid nanoparticle size and polydispersity by dynamic light scattering (Malvern Zetasizer Nano ZS); conditions: LNP of cationic lipid/DSPC/cholesterol/PEG-lipid 50:10:38.5:1.5 with mRNA
Method: (§1) Briefly, a cationic lipid provided herein, DSPC, cholesterol, and PEG-lipid were solubilized in ethanol at a molar ratio of 50:10:38.5:1.5, and mRNA were diluted in 10 to 50 mM citrate buffer, pH=4. The LNPs were prepared at a total lipid to mRNA weight ratio of approximately 10:1 to 30:1 by mixing the ethanolic lipid solution with the aqueous mRNA solution at a volume ratio of 1:3 using a microfluidic apparatus, total flow rate ranging from 9-30 mL/min. Ethanol were thereby removed and replaced by DPBS using dialysis. Finally, the lipid nanoparticles were filtered through a 0.2 μm sterile filter.
(§2) Lipid nanoparticle size were determined by dynamic light scattering using a Malvern Zetasizer Nano ZS (Malvern UK) using a 173° backscatter detection mode. The encapsulation efficiency of lipid nanoparticles were determined using a Quant-it Ribogreen RNA quantification assay kit (Thermo Fisher Scientific, UK) according to the manufacturer's instructions.

[2] = Encapsulation efficiency of lipid nanoparticles, Quant-it Ribogreen RNA quantification assay; conditions: LNP with mRNA
Method: as §1, §2

[3] = Apparent pKa of LNP formulations, TNS fluorescence assay; conditions: LNP cationic lipid/DSPC/cholesterol/DMG-PEG 50/10/38.5/1.5 mol %, pH 3 to 9
Method: As reported in literature, the apparent pKa of LNP formulations correlates with the delivery efficiency of LNPs for nucleic acids in vivo. The apparent pKa of each formulation was determined using an assay based on fluorescence of 2-(p-toluidino)-6-napthalene sulfonic acid (TNS). LNP formulations comprising of cationic lipid/DSPC/cholesterol/DMG-PEG (50/10/38.5/1.5 mol %) in PBS were prepared as described above. TNS was prepared as a 300 uM stock solution in distilled water. LNP formulations were diluted to 0.1 mg/ml total lipid in 3 mL of buffered solutions containing 50 mM sodium citrate, 50 mM sodium phosphate, 50 mM sodium borate, and 30 mM sodium chloride where the pH ranged from 3 to 9. An aliquot of the TNS solution was added to give a final concentration of 0.1 mg/ml and following vortex mixing fluorescence intensity was measured at room temperature in a Molecular Devices Spectramax iD3 spectrometer using excitation and mission wavelengths of 325 nm and 435 nm. A sigmoidal best fit analysis was applied to the fluorescence data and the pKa value was measured as the pH giving rise to half-maximal fluorescent intensity.

Row | Structure (SMILES) | polydispersity [1] | size (nm) [1] [nm] | Encapsulation Efficiency [2] [%] | Apparant Pka [3]
1 | CCCCCCCCC(CCCCCC)CC(=O)OCC(CCCCN(CC=C(C)C)CCN(CCO)C1CCC1)COC(=O)CC(CCCCCC)CCCCCCCC (stereo not drawn) [Compound 78] | 0.017 | 159.72 | 93.77 | 6.166
2 | CCCCCCCCC(CCCCCCCC)CC(=O)OCC(CCCCN(CC)CCN(CCO)C1CCC1)COC(=O)CC(CCCCCCCC)CCCCCCCC [Compound 67] | 0.116 | 130.6 | 91.83 | 6.444
3 | CCCCCCCCC(CCCCCCCC)CC(=O)OCC(CCCCN(CCN(C)CCO)C1CCC1)COC(=O)CC(CCCCCCCC)CCCCCCCC [Compound 65] | 0.082 | 73.61 | 97.0 | 6.428
4 | CCCCCCCCC(CCCCCC)CC(=O)OCC(CCCCN(CCN(CCO)CCCCC)C1CCC1)COC(=O)CC(CCCCCC)CCCCCCCC (stereo not drawn) [Compound 110] | 0.038 | 75.71 | 92.71 | 6.147
5 | CCCCC/C=C\C/C=C\CCCCCCCC(=O)OCC(CCCCN(CCO)C1CCCCC1)COC(=O)CC(CCCCCC)CCCCCCCC (stereo not drawn) [Compound 100] | 0.055 | 64.54 | 91.24 | 6.666
6 | CCCCCCCCCCCCOCC(CN(CCCCCC(=O)OCC(CCCCCC)CCCCCCCC)CCN(CCO)C1CC1)OCCCCCCCC (stereo not drawn) [Compound 34] | 0.103 | 58.33 | 89.60 | 5.482
7 | CCCCCCCCCCCCOCC(CN(CCO)CCCCCC(=O)OCC(CCCCCC)CCCCCCCC)OC(=O)CCCCC (stereo not drawn) [Compound 14] | 0.4 | 56.31 | 86.1 | 4.536
8 | CCCCCCCCCCCCOCC(CN(CCO)C1CCC1)OCCCCCC(=O)OCC(CCCCCC)CCCCCCCC (stereo not drawn) [Compound 4] | 0.2 | 54.52 | 94.6 | 5.083
9 | CCCCCCCCCCCCOCC(CN(CCCCCC(=O)OCC(CCCCCC)CCCCCCCC)CCN(CCO)C1CCC1)OC(C)=O (stereo not drawn) [Compound 20] | 0.145 | 67.7 | 90.7 | 5.96
10 | CCCCCCCCCCCC(=O)OCC(CN(CCCCCC(=O)OCC(CCCCCC)CCCCCC)CCN1CCC(O)C1)OC(=O)CCCCC (stereo not drawn) [Compound 62] | 0.075 | 58.44 | 94.1 | 7.062
11 | CCCCCCCCCCCCOCC(CN(C)CCN(CCO)C1CCC1)OCCCCCCCCCCCC (stereo not drawn) [Compound 39] | 0.162 | 111.2 | 94.7 | 6.712
12 | CCCCCCCCCCCCOCC(CN(CCCCCCCCCCCC)CCN(CCO)C1CCC1)OCCCCCCCCCCCC (stereo not drawn) [Compound 17] | 0.186 | 79.43 | 92.8 | 5.835
13 | CCCCCCCCC(CCCCCC)CC(=O)OCC(CCCCN(CCN(CCO)C1CCC1)C1CCC1)COC(=O)CC(CCCCCC)CCCCCCCC (stereo not drawn) [Compound 79] | 0.01 | 103.64 | 91.29 | 5.927
14 | CCCCCCCCCCCCCCCCOCC(CN(CCCCCC(=O)OCCCCCCCCCC)CCN(CCO)C1CCC1)OCCCCCC (stereo not drawn) [Compound 53] | 0.014 | 90.06 | 89.79 | 6.069
15 | CCCCCCCCCCCCOCC(CN(CCCCCC(=O)OCCCCCCCCCC)CCN(CCO)C1CCC1)OCCCCCCCC (stereo not drawn) [Compound 48] | 0.113 | 79.39 | 91.7 | 6.263
16 | CCCCCCCCCCCCOCC(CN(CCO)CCCCCC(=O)OCC(CCCCCC)CCCCCCCC)OC(=O)CC (stereo not drawn) [Compound 19] | 0.156 | 117.5 | 88.5 | 4.957
17 | CCCCCCCCC(CCCCCC)CC(=O)OCC(CCCCN(CC=C(C)C)CCO)COC(=O)CC(CCCCCC)CCCCCCCC (stereo not drawn) [Compound 77] | 0.046 | 56.88 | 89.92 | 6.439

Row | Structure (SMILES) | polydispersity [1] | size (nm) [1] [nm] | Encapsulation Efficiency [2] [%] | Apparant Pka [3]
18 | CCCCC/C=C\C/C=C\CCCCCCCC(=O)OCC(CCCCN(CCO)C1CCCCCCC1)COC(=O)CC(CCCCCC)CCCCCCCC (stereo not drawn) [Compound 101] | 0.111 | 59.51 | 92.79 | 6.488
19 | CCCCCCCCCCCCOCC(CN(CCCCCC(=O)OCC(CCCCCC)CCCCCCCC)CCN(CCO)C1CC1)OCCCCCCCCCCCC (stereo not drawn) [Compound 27] | 0.139 | 65.62 | 73.3 | 5.351
20 | CCCCCCCCC(CCCCCCCC)CNC(=O)CCOCC(CN(C)CCO)OCCC(=O)NCC(CCCCCCCC)CCCCCCCC (stereo not drawn) [Compound 50] | 0.099 | 58.14 | 90.4 | 8.298
21 | CCCCCCCCCOC(=O)CCOCC(CN(C)CCN(CCO)C1CCC1)OCCC(=O)OCCCCCCCCC (stereo not drawn) [Compound 43] | 0.362 | 138.6 | 78.4 | 7.227
22 | CCCCCCCCCCCCOCC(CN(C)CCN(CCO)C1CCCC1)OCCCCCC (stereo not drawn) [Compound 5] | 0.384 | 78.36 | 92.4 | 7.315
23 | CCCCCCCCCCCCOCC(CN(CCCCCC(=O)OCC(CCCCCC)CCCCCCCC)CCN(CCO)C1CCCCC1)OCCCCCCCC (stereo not drawn) [Compound 36] | 0.078 | 59.91 | 94.20 | 5.774
24 | CCCCCCCCC(CCCCCCCC)CC(=O)OCC(CCCCN(CCO)C1CCC1)COC(=O)CCCCC (stereo not drawn) [Compound 60] | 0.068 | 73.31 | 92.6 | 6.985
25 | CCCCCCCCC(CCCCCCCC)COC(=O)CCOCC(CN(C)CCN(CCO)C1CCC1)OCCC(=O)OCC(CCCCCCCC)CCCCCCCC (stereo not drawn) [Compound 55] | 0.034 | 75.43 | 89.5 | 6.851
26 | CCCCCCCCCCCCCCCCCCOCC(CN(CCCCCC(=O)OCCCCCCCCCC)CCN(CCO)C1CCC1)OCCCCCC (stereo not drawn) [Compound 46] | 0.039 | 103.3 | 95.9 | 6.047
27 | CCCCCCCCCCCCOCC(O)CN(CCO)CCCCCC(=O)OCC(CCCCCC)CCCCCCCC (stereo not drawn) [Compound 13] | 0.128 | 61.3 | 94.2 | 7.089
28 | CCCCCCCCCCCCOCC(CN(CCCCCC(=O)OCC(CCCCCC)CCCCCCCC)CCN(CCO)C1CCCC1)OCCCCCCCCCCCC (stereo not drawn) [Compound 29] | 0.110 | 53.73 | 80.1 | 5.699
29 | CCCCCCCCC(CCCCCCCC)COC(=O)CCOCC(CN(C)CCN(CCO)C1CC1)OCCC(=O)OCC(CCCCCCCC)CCCCCCCC (stereo not drawn) [Compound 70] | 0.049 | 78.45 | 93.32 | 6.351
30 | CCCCCCC(CCCCCC)COC(=O)CCCCCN(CCN1CCC(O)C1)CC(COC(=O)CCCCC)OC(=O)CCCCC (stereo not drawn) [Compound 63] | 0.076 | 150.2 | 95.9 | 6.928
31 | CCCCCCCCCCCCOCC(CN(CCCCCC(=O)OCC(CCCCCC)CCCCCCCC)CCN(CCO)C1CCCCCC1)OCCCCCCCC (stereo not drawn) [Compound 37] | 0.156 | 51.77 | 92.70 | 5.726
32 | CCCCCCCCCCCCOCC(CN(C)CCN(CCO)C1CCC1)OC(=O)CCCCC (stereo not drawn) [Compound 44] | 0.178 | 112.8 | 85.2 | 6.65
33 | CCCCCCCCCCCCOCC(CN(CCO)C1CCC1)OCCCCCCCCCCCC (stereo not drawn) [Compound 1] | 0.12 | 72.4 | 96.3 | 5.902
